# Tested on: PDC KRAS tumor spheroids with HUVEC/MSC, viability
# Test: Anticancer human tumor 349418-098-R-PDC patient-derived lung adenocarcinoma cell line growth inhibition [KRAS2]
# Settings: for viability, T/C: stronger effect = lower value
# Description: Multicellular complex tumor spheroid response to RAS pathway inhibitors in combination with a targeted agents in patient-derived cell lines with oncogenic KRAS variants from multiple cancer types
# A high-throughput screen of multi-cell type tumor spheroids was designed to identify active combinations of targeted small molecules and KRAS pathway inhibitors. Complex spheroids include a stromal component modeled by human endothelial cells (HUVEC) and fibroblasts modeled by human mesenchymal stem cells (MSCs). The concentration ranges selected for each drug and investigational agent were based upon clinically achievable concentrations if the clinical Cmax of the agent was known.
# Compounds. The drugs and investigational agents: BI-3406 (NSC825286), BAY-293 (NSC824723), batoprotafib (TNO155; NSC825523), sotorasib (AMG 510; NSC818433), MRTX1257 (NSC819558), elimusertib (BAY 1895344; NSC800525), molibresib (GSK525762; NSC774829), temuterkib (LY3214996; NSC803410), venetoclax (NSC766270), alisertib (NSC759677), olaparib (NSC753686), talazoparib (NSC767125), erdafitinib (NSC781556), ipatasertib (NSC767898), cabozantinib (NSC761068), nintedanib (NSC756659), abemaciclib (NSC768073), docetaxel (NSC628503), trametinib (NSC758246), and sapanisertib (NSC764658) were obtained from the National Cancer Institute (NCI) Developmental Therapeutics Program Chemical Repository. The FDA-approved anticancer drug set is available from the Developmental Therapeutics Program. […] The stock solutions were prepared in dimethyl sulfoxide (DMSO, Sigma-Aldrich, St. Louis, MO, cat. D2650) at 800-fold the tested concentration and stored at -70 degrees C prior to their use. All drugs and investigational agents were tested over a range starting from a high concentration at or near the clinical Cmax and decreasing in half-log increments. If the clinical Cmax for an agent had not been determined, the highest concentration tested was 10 microM.
# Cell Culture. All cells were maintained in an incubator at 37 degrees C and 5% CO2 with 95% humidity. The PDC lines were cultured according to standard operating procedures established by the NCI PDMR (https://pdmr.cancer.gov/sops/default.htm). Briefly, all PDCs were thawed and cultured in Matrigel-coated flasks prepared with a working solution of 1X Ham's F-12 nutrient mix, without supplementation (Invitrogen, Waltham, MA, cat. 11765054), 100 U/mL penicillin-streptomycin (Invitrogen, cat. 15140122), and 2.5% Matrigel (Corning Inc., Corning, NY, cat. 354248) for the first three passages. All PDCs were cultured in complete DMEM/F-12 media containing advanced DMEM/F-12 (Invitrogen, cat. 12634028), 4.9% defined fetal bovine serum, heat inactivated (HyClone Laboratories Inc., Logan, UT, cat. SH30070.03HI), 389 ng/mL hydrocortisone (Sigma-Aldrich, cat. H4001), 9.7 ng/mL human EGF recombinant protein (Invitrogen, cat. PHG0313), 23.4 microg/mL adenine (Sigma-Aldrich, cat. A2786), 97.3 U/mL penicillin-streptomycin (Invitrogen, cat. 15140122), 1.9 mM L-glutamine (Invitrogen, cat. 25030081), and 9.7 microM Y-27632 dihydrochloride (Tocris Bioscience, Bristol, United Kingdom, cat. 1254). The PDCs were cultured in complete DMEM/F12 media without 9.7 microM Y-27632 dihydrochloride for at least two passages prior to the screen. The established cell line HOP-62 was cultured in RPMI 1640 medium, HEPES (Invitrogen, cat. 22400105) with 10% defined fetal bovine serum (HyClone Laboratories Inc., cat. SH30070.03) and 2 mM L-glutamine (Invitrogen, cat. 25030081). The pooled donor HUVEC were cultured in endothelial cell growth medium 2 (PromoCell, Heidelberg, Germany, cat. C-22011) and the hMSC were cultured in mesenchymal stem cell growth medium 2 (PromoCell, cat. C-28009). For all experiments, HUVEC and hMSC were used at passages </=5, while the malignant cell lines were used at passages </=15. […]
# [1] = curve of first compound, second compound 0.1 µM
# [2] = curve of first compound, second compound 0.316 µM
# [3] = curve of first compound, second compound 1 µM
# [4] = curve of first compound, second compound 3.16 µM
# [5] = curve of first compound, second compound 10 µM
# [6] = second compound 0.1 µM, first compound 0.0316 µM
# [7] = second compound 0.1 µM, first compound 0.1 µM
# [8] = second compound 0.316 µM, first compound 0.0316 µM
# [9] = second compound 0.316 µM, first compound 0.1 µM
# [10] = second compound 1 µM, first compound 0.0316 µM
# [11] = second compound 1 µM, first compound 0.1 µM
# [12] = second compound 3.16 µM, first compound 0.0316 µM
# [13] = second compound 3.16 µM, first compound 0.1 µM
# [14] = second compound 10 µM, first compound 0.0316 µM
# [15] = second compound 10 µM, first compound 0.1 µM
# 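Further: spheroids exposed to compounds for seven days before readout.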
smiles,measurement,setting,value
O=C(c1cc(Cc2n[nH]c(=O)c3ccccc23)ccc1F)N1CCN(C(=O)C2CC2)CC1 + C=CC(=O)N1CCN(c2nc(=O)n(-c3c(C)ccnc3C(C)C)c3nc(-c4c(O)cccc4F)c(F)cc23)C(C)C1,IC50,[1],95.8 nM
same,IC50,[2],350 nM
same,IC50,[3],1630 nM
same,IC50,[4],1310 nM
same,IC50,[5],< 31.6 nM
same,"viability, T/C",[6],84.6%
same,"viability, T/C",[7],47.1%
same,"viability, T/C","second compound 0.1 µM, first compound 0.316 µM",32.3%
same,"viability, T/C","second compound 0.1 µM, first compound 1 µM",21.4%
same,"viability, T/C","second compound 0.1 µM, first compound 3.16 µM",17.5%
same,"viability, T/C","second compound 0.1 µM, first compound 10 µM",14.8%
same,"viability, T/C",[8],92.6%
same,"viability, T/C",[9],86.3%
same,"viability, T/C","second compound 0.316 µM, first compound 0.316 µM",52.2%
same,"viability, T/C","second compound 0.316 µM, first compound 1 µM",26.3%
same,"viability, T/C","second compound 0.316 µM, first compound 3.16 µM",30%
same,"viability, T/C","second compound 0.316 µM, first compound 10 µM",17.2%
same,"viability, T/C",[10],100%
same,"viability, T/C",[11],92.8%
same,"viability, T/C","second compound 1 µM, first compound 0.316 µM",83.1%
same,"viability, T/C","second compound 1 µM, first compound 1 µM",71.2%
same,"viability, T/C","second compound 1 µM, first compound 3.16 µM",20.6%
same,"viability, T/C","second compound 1 µM, first compound 10 µM",20.9%
same,"viability, T/C",[12],68.7%
same,"viability, T/C",[13],67.2%
same,"viability, T/C","second compound 3.16 µM, first compound 0.316 µM",75.8%
same,"viability, T/C","second compound 3.16 µM, first compound 1 µM",51.9%
same,"viability, T/C","second compound 3.16 µM, first compound 3.16 µM",33.7%
same,"viability, T/C","second compound 3.16 µM, first compound 10 µM",18.3%
same,"viability, T/C",[14],42%
same,"viability, T/C",[15],43.9%
same,"viability, T/C","second compound 10 µM, first compound 0.316 µM",36.3%
same,"viability, T/C","second compound 10 µM, first compound 1 µM",27%
same,"viability, T/C","second compound 10 µM, first compound 3.16 µM",29.2%
same,"viability, T/C","second compound 10 µM, first compound 10 µM",14%
CC(C)n1nc(-c2ccc3oc(N)nc3c2)c2c(N)ncnc21 + C=CC(=O)N1CCN(c2nc(=O)n(-c3c(C)ccnc3C(C)C)c3nc(-c4c(O)cccc4F)c(F)cc23)C(C)C1,IC50,[1],0.827 nM
same,IC50,[2],0.865 nM
same,IC50,[3],0.551 nM
same,IC50,[4],< 0.316 nM
same,IC50,[5],< 0.316 nM
same,"viability, T/C","second compound 0.1 µM, first compound 0.000316 µM",87.7%
same,"viability, T/C","second compound 0.1 µM, first compound 0.001 µM",42.6%
same,"viability, T/C","second compound 0.1 µM, first compound 0.00316 µM",17.4%
same,"viability, T/C","second compound 0.1 µM, first compound 0.01 µM",9.72%
same,"viability, T/C",[6],7.63%
same,"viability, T/C",[7],6.75%
same,"viability, T/C","second compound 0.316 µM, first compound 0.000316 µM",70.5%
same,"viability, T/C","second compound 0.316 µM, first compound 0.001 µM",47%
same,"viability, T/C","second compound 0.316 µM, first compound 0.00316 µM",19%
same,"viability, T/C","second compound 0.316 µM, first compound 0.01 µM",8.07%
same,"viability, T/C",[8],7.39%
same,"viability, T/C",[9],6.37%
same,"viability, T/C","second compound 1 µM, first compound 0.000316 µM",68%
same,"viability, T/C","second compound 1 µM, first compound 0.001 µM",30.5%
same,"viability, T/C","second compound 1 µM, first compound 0.00316 µM",15.7%
same,"viability, T/C","second compound 1 µM, first compound 0.01 µM",8.07%
same,"viability, T/C",[10],6.75%
same,"viability, T/C",[11],6.16%
same,"viability, T/C","second compound 3.16 µM, first compound 0.000316 µM",37.9%
same,"viability, T/C","second compound 3.16 µM, first compound 0.001 µM",35.5%
same,"viability, T/C","second compound 3.16 µM, first compound 0.00316 µM",10.3%
same,"viability, T/C","second compound 3.16 µM, first compound 0.01 µM",7.68%
same,"viability, T/C",[12],6.06%
same,"viability, T/C",[13],6.09%
same,"viability, T/C","second compound 10 µM, first compound 0.000316 µM",26.1%
same,"viability, T/C","second compound 10 µM, first compound 0.001 µM",15.7%
same,"viability, T/C","second compound 10 µM, first compound 0.00316 µM",10.1%
same,"viability, T/C","second compound 10 µM, first compound 0.01 µM",7.31%
same,"viability, T/C",[14],6.65%
same,"viability, T/C",[15],6.48%
CNCc1ccccc1-c1csc(C(C)Nc2nc(C)nc3cc(OC)c(OC)cc23)c1 (stereo not drawn),"viability, T/C",compound 10 µM,0.1% [middle of 12 runs]
same,IC50,"compound alone, run of 07/19/2021",1.6 µM [middle of 5 runs]
same,IC50,"compound alone, run of 07/26/2021",1.09 µM [middle of 6 runs]

# Source: PubChem BioAssay AID1963866 (Molecular Pharmacology Branch, DTP, NCI, 2024)
